Measurements reported in PMC6100557, “Quinazolinone-Amino Acid Hybrids as Dual Inhibitors of EGFR Kinase and Tubulin Polymerization” (Molecules : A Journal of Synthetic Chemistry and Natural …, 2018).
“Also recorded” adds a separate entry of the source. Read-outs that look alike come from different tables or passages of the source.

Key:
MDA-MBA-231 = assay: In vitro cytotoxic screening (MTT assay), MDA-MBA-231; assay type: cell-based; settings: read-out: IC50 (µM) MDA-MBA-231
Description: (§1) Cells were cultured using reported culture media, incubated for 24 h, treated with different concentrations of tested derivatives and incubated for 48 h. MTT was added to extract the color, which was then measured by ELISA [12].

MCF-7 = assay: In vitro cytotoxic screening (MTT assay), MCF-7; assay type: cell-based; settings: Homo sapiens, read-out: IC50 (µM) MCF-7
Description: as §1

[1] = tested on: MCF-7 and MDA-MBA-231 cells; assay: Cytotoxic screening on the two cell lines, selectivity MCF-7 versus MDA-MBA-231; assay type: cell-based; settings: for Selectivity Indices S1: S1 = IC50 (MCF-7)/IC50 (MDA-MBA-231); for Cell Line (type of selectivity): S1 > S2: more selective to MDA-MBA-231, S2 > S1: more selective to MCF-7; for Selectivity Indices S2: S2 = IC50 (MDA-MBA-231)/IC50 (MCF-7)
Description: as §1

EGFR kinase = EGFR kinase (Homo sapiens, UniProt P00533); assay: EGFR inhibition assay (HTScan EGFR kinase assay kit)
EGFR kinase, sequence (P00533 672-1210 limits assumed): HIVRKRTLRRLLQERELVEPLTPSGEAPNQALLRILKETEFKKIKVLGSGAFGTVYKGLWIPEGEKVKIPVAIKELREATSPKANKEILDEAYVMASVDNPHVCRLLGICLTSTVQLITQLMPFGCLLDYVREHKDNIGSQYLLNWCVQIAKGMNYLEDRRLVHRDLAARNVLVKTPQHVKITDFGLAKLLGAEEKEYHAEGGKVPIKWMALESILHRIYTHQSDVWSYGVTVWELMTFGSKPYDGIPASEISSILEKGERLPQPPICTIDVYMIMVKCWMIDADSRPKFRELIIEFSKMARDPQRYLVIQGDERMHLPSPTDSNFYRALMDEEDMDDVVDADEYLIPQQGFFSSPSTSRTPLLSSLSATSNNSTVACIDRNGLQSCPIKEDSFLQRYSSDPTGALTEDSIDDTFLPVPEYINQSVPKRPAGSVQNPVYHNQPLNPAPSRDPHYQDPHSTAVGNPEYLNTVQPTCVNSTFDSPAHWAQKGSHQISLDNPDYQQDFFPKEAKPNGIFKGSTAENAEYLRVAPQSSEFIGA
Description: High tech HTScan EGFR kinase assay kits (Cell Signaling Technology, Danvers, MA, USA) were used to measure EGFR kinase activity. The assay was achieved following the manufacturers’ instructions and reported procedures [16, 23].

porcine tubulin protein = target: T1, porcine tubulin protein (Sus scrofa, UniProt P02550+P02554); assay: Tubulin polymerization inhibition assay (CytoDYNAMIX Screen kit); assay type: biochemical; settings: absorbance 340 nm, 30 min, 37 °C
T1 construct: purchased Cytoskeleton Inc. BK006P
T1 sequence (P02550 whole entry): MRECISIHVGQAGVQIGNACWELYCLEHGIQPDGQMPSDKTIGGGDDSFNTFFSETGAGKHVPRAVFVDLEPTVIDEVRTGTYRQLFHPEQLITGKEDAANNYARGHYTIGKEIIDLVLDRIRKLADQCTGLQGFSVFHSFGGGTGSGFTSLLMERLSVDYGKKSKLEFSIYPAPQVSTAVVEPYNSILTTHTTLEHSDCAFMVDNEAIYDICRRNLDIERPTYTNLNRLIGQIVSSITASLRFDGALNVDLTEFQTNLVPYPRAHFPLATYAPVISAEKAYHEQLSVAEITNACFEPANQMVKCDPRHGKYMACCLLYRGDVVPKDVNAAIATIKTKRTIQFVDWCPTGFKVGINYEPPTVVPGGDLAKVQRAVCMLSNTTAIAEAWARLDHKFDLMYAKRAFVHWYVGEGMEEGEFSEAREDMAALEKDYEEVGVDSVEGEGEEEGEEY
T1 sequence (P02554 whole entry): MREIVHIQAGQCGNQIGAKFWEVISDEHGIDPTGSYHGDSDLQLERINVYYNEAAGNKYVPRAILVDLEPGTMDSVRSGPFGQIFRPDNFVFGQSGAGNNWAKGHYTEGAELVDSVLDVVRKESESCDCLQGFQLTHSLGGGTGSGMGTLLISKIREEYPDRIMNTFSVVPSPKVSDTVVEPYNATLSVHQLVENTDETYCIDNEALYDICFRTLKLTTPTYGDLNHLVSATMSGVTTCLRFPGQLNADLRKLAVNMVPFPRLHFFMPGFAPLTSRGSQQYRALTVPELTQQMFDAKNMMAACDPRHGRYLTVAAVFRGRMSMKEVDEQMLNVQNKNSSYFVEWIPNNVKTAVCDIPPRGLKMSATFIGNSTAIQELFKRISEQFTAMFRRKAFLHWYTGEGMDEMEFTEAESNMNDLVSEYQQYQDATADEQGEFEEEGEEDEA
Description: Cold porcine tubulin protein (>99% purity) was added to a G-PEM buffer (80 mM PIPES, 2 mM MgCl2, 0.5 mM EGTA, 1 mM GTP, pH 6.9) containing 15% glycerol with or without the identified compounds. […] The absorbance was monitored every minute for 30 min at 340 nm [16, 23].

[2] = MTT assay, 48 h incubation, mean ± SD
[3] = MCF7, MTT assay, 48 h incubation, mean ± SD

Compound | IC50 (MDA-MBA-231; [2]) [µM] | melting point [°C] | IC50 (MCF-7; [3]) [µM] | Selectivity Indices S1 [1] | Cell Line (type of selectivity) [1] | Selectivity Indices S2 [1] | IC50 (EGFR kinase) [µM] | IC50 (porcine tubulin protein) [µM] | IC50 (MDA-MBA-231; 48 h) [µM] | IC50 (MCF-7; MCF7, 48 h) [µM]
CC(C)[C@H](N)C(=O)Nn1c(-c2ccc(F)cc2)nc2ccc(F)cc2c1=O [C, (S)-2-amino-N-(6-fluoro-2-(4-fluorophenyl)-4-oxoquinazolin-3(4H)-yl)-3-methylbutanamide] | 3.45 ± 0.21 | 242 to 244 | 1.16 ± 0.05 | 0.34 ± 0.18 | more selective to MCF-7 than MDA-MBA-231; also recorded: MCF-7 selective | 2.98 ± 0.71 |  |  |  | 
C[C@H](N)C(=O)Nn1c(-c2ccc(F)cc2)nc2ccc(F)cc2c1=O [Compound B, (S)-2-amino-N-(6-fluoro-2-(4-fluorophenyl)-4-oxoquinazolin-3(4H)-yl)propanamide] | 42.9 ± 2.64 | 238 to 240 | 68.5 ± 3.27 | 1.59 ± 0.05 | more selective to MDA-MBA-231 than MCF-7; also recorded: MDA-MBA-231 selective | 0.63 ± 0.23 |  |  |  | 
CCC(C)[C@H](N)C(=O)Nn1c(-c2ccc(F)cc2)nc2ccc(F)cc2c1=O (stereo partly drawn) [D, (2S)-2-amino-N-(6-fluoro-2-(4-fluorophenyl)-4-oxoquinazolin-3(4H)-yl)-3-methylpentanamide] | 7.49 ± 0.42 | 248 to 250 | 11.3 ± 1.25 | 1.51 ± 0.24 | more selective to MDA-MBA-231 than MCF-7; also recorded: MDA-MBA-231 selective | 0.66 ± 0.17 |  |  |  | 
NCC(=O)Nn1c(-c2ccc(F)cc2)nc2ccc(F)cc2c1=O [A, 2-amino-N-(6-fluoro-2-(4-fluorophenyl)-4-oxoquinazolin-3(4H)-yl)acetamide] | 16.3 ± 1.21 | 236 to 238 | 25 ± 1.61 | 1.53 ± 0.12 | more selective to MDA-MBA-231 than MCF-7; also recorded: MDA-MBA-231 selective | 0.65 ± 0.05 |  |  |  | 
N[C@@H](Cc1ccccc1)C(=O)Nn1c(-c2ccc(F)cc2)nc2ccc(F)cc2c1=O [Compound G, (S)-2-amino-N-(6-fluoro-2-(4-fluorophenyl)-4-oxoquinazolin-3(4H)-yl)-3-phenylpropanamide] | 24.7 ± 1.7 | 245 to 247 | 0.44 ± 0.01 | 0.02 ± 0.07 | more selective to MCF-7 than MDA-MBA-231; also recorded: MCF-7 selective | 56.07 ± 0.15 | 0.16397 ± 7e-05 |  |  | 
N[C@@H](CCC(=O)O)C(=O)Nn1c(-c2ccc(F)cc2)nc2ccc(F)cc2c1=O [Compound E, (S)-4-(6-fluoro-2-(4-fluorophenyl)-4-oxoquinazolin-3(4H)-ylcarbamoyl)-4-aminobutanoic acid] | 0.43 ± 0.02 | 244 to 246 | 12.4 ± 5.73 | 28.93 ± 0.08 | more selective to MDA-MBA-231 than MCF-7; also recorded: MDA-MBA-231 selective | 0.03 ± 0.11 | 0.54538 ± 4e-05 | 6.24 |  | 
N[C@H](CS)C(=O)Nn1c(-c2ccc(F)cc2)nc2ccc(F)cc2c1=O [F, (S)-2-amino-N-(6-fluoro-2-(4-fluorophenyl)-4-oxoquinazolin-3(4H)-yl)-3-mercaptopropanamide] | 12.5 ± 5.88 | 220 to 222 | 1.93 ± 0.08 | 0.15 ± 0.17 | more selective to MCF-7 than MDA-MBA-231; also recorded: MCF-7 selective | 6.46 ± 0.04 |  |  |  | 
C#Cc1cccc(Nc2ncnc3cc(OCCOC)c(OCCOC)cc23)c1 [Erlotinib, erlotinib, reference compound] |  |  |  |  |  |  |  |  | 2.55 ± 0.19 | 1.14
O=C(Nn1c(-c2ccc(F)cc2)nc2ccc(F)cc2c1=O)C1CCCN1 (centres unmarked) [H, N-(6-fluoro-2-(4-fluorophenyl)-4-oxoquinazolin-3(4H)-yl)pyrrolidine-2-carboxamide] | 12 ± 1.33 | 235 to 237 | 1.28 ± 0.03 | 0.11 ± 0.23 | more selective to MCF-7 than MDA-MBA-231; also recorded: MCF-7 selective | 9.34 ± 0.02 |  |  |  | 
